# Measurements published in PubChem BioAssay (NCI).
#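 Interpolation was linear, between the two tested concentrations surrounding the appropriate level; five concentrations were tested over 48 hours in 96-well plates. The concentration for full growth arrest is given as TGI.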
# Legend:
# Assay in all cases: inhibition of tumour cell growth, NCI panel, 48 h
# U251 CNS = tested on: U251 CNS
# IGROV1 ovarian = tested on: IGROV1 ovarian
# KM12 colon = tested on: KM12 colon
# HS 578T breast = tested on: HS 578T breast
# HL-60(TB) leukemia = tested on: HL-60(TB) leukemia
# SNB-75 CNS = tested on: SNB-75 CNS
# SW-620 colon = tested on: SW-620 colon
# MOLT-4 leukemia = tested on: MOLT-4 leukemia
# UACC-257 melanoma = tested on: UACC-257 melanoma
# NCI-H226 lung = tested on: NCI-H226 lung
# SK-MEL-5 melanoma = tested on: SK-MEL-5 melanoma
# MDA-MB-435 = tested on: MDA-MB-435
# COLO 205 colon = tested on: COLO 205 colon
# LOX IMVI melanoma = tested on: LOX IMVI melanoma
# OVCAR-8 ovarian = tested on: OVCAR-8 ovarian
# UACC-62 melanoma = tested on: UACC-62 melanoma
# RXF 393 renal = tested on: RXF 393 renal
# NCI-H460 lung = tested on: NCI-H460 lung
# HCT-15 colon = tested on: HCT-15 colon
# 786-0 renal = tested on: 786-0 renal
# OVCAR-4 ovarian = tested on: OVCAR-4 ovarian
# SNB-19 CNS = tested on: SNB-19 CNS
# TK-10 renal = tested on: TK-10 renal
# MDA-N = tested on: MDA-N
# HT29 colon = tested on: HT29 colon
# SF-268 CNS = tested on: SF-268 CNS
# DU-145 prostate = tested on: DU-145 prostate
# K-562 leukemia = tested on: K-562 leukemia
# T-47D breast = tested on: T-47D breast
# RPMI-8226 leukemia = tested on: RPMI-8226 leukemia
# A498 renal = tested on: A498 renal
# BT-549 breast = tested on: BT-549 breast
# CAKI-1 renal = tested on: CAKI-1 renal
# HCT-116 colon = tested on: HCT-116 colon
# HOP-62 NSCLC = tested on: HOP-62 NSCLC
# MCF7 breast = tested on: MCF7 breast
# NCI-H23 lung = tested on: NCI-H23 lung
# OVCAR-3 ovarian = tested on: OVCAR-3 ovarian
# SK-MEL-2 melanoma = tested on: SK-MEL-2 melanoma
# NCI-H522 lung = tested on: NCI-H522 lung
# EKVX NSCLC = tested on: EKVX NSCLC
# SR leukemia = tested on: SR leukemia
# OVCAR-5 ovarian = tested on: OVCAR-5 ovarian
# MDA-MB-231 breast = tested on: MDA-MB-231 breast
# SK-MEL-28 melanoma = tested on: SK-MEL-28 melanoma
# HCC-2998 colon = tested on: HCC-2998 colon
# UO-31 renal = tested on: UO-31 renal
# MALME-3M melanoma = tested on: MALME-3M melanoma
# ACHN renal = tested on: ACHN renal
# NCI/ADR-RES ovarian = tested on: NCI/ADR-RES ovarian
# PC-3 prostate = tested on: PC-3 prostate
# SF-295 CNS = tested on: SF-295 CNS
# SN12C renal = tested on: SN12C renal
# A549 NSCLC = tested on: A549 NSCLC
# CCRF-CEM leukemia = tested on: CCRF-CEM leukemia
# HOP-92 NSCLC = tested on: HOP-92 NSCLC
# SK-OV-3 ovarian = tested on: SK-OV-3 ovarian
# M14 melanoma = tested on: M14 melanoma
smiles,measurement,setting,value
C1=Nc2sc3c(c2C2=NCCN12)CCCC3,TGI,U251 CNS,41.7 µM
same,TGI,IGROV1 ovarian,30.8 µM
same,TGI,KM12 colon,31.3 µM
same,TGI,HS 578T breast,51.8 µM
same,TGI,HL-60(TB) leukemia,36.5 µM
same,TGI,SNB-75 CNS,34.9 µM
same,TGI,SW-620 colon,43.8 µM
same,TGI,MOLT-4 leukemia,36.4 µM
same,TGI,UACC-257 melanoma,30 µM
same,TGI,NCI-H226 lung,33.2 µM
same,TGI,SK-MEL-5 melanoma,34.3 µM
same,TGI,MDA-MB-435,41 µM
same,TGI,COLO 205 colon,53.2 µM
same,TGI,LOX IMVI melanoma,28.2 µM
same,TGI,OVCAR-8 ovarian,32.1 µM
same,TGI,UACC-62 melanoma,29 µM
same,TGI,RXF 393 renal,44.9 µM
same,TGI,NCI-H460 lung,32.4 µM
same,TGI,HCT-15 colon,30.4 µM
same,TGI,786-0 renal,34.1 µM
same,TGI,OVCAR-4 ovarian,42.1 µM
same,TGI,SNB-19 CNS,34.9 µM
same,TGI,TK-10 renal,30.7 µM
same,TGI,MDA-N,35.5 µM
same,TGI,HT29 colon,32.8 µM
same,TGI,SF-268 CNS,52.1 µM
same,TGI,DU-145 prostate,30.1 µM
same,TGI,K-562 leukemia,> 100 µM
same,TGI,T-47D breast,39.9 µM
same,TGI,RPMI-8226 leukemia,43.3 µM
same,TGI,A498 renal,46.6 µM
same,TGI,BT-549 breast,28.7 µM
same,TGI,CAKI-1 renal,31.1 µM
same,TGI,HCT-116 colon,30.5 µM
same,TGI,HOP-62 NSCLC,37.2 µM
same,TGI,MCF7 breast,33.7 µM
same,TGI,NCI-H23 lung,29.3 µM
same,TGI,OVCAR-3 ovarian,32.3 µM
same,TGI,SK-MEL-2 melanoma,20.7 µM
same,TGI,NCI-H522 lung,30.9 µM
same,TGI,EKVX NSCLC,32 µM
same,TGI,SR leukemia,> 100 µM
same,TGI,OVCAR-5 ovarian,35.9 µM
same,TGI,MDA-MB-231 breast,30.3 µM
same,TGI,SK-MEL-28 melanoma,41 µM
same,TGI,HCC-2998 colon,24.3 µM
same,TGI,UO-31 renal,30.1 µM
same,TGI,MALME-3M melanoma,32.9 µM
same,TGI,ACHN renal,30.8 µM
same,TGI,NCI/ADR-RES ovarian,34.6 µM
same,TGI,PC-3 prostate,30.7 µM
same,TGI,SF-295 CNS,39.6 µM
Cc1ccc2nc(-c3ccc(-n4c(C)nc(=O)c(-c5ccc(F)cc5)c4C)cc3)sc2c1,TGI,U251 CNS,30.7 µM
same,TGI,IGROV1 ovarian,31.4 µM
same,TGI,KM12 colon,38.4 µM
same,TGI,HS 578T breast,96.9 µM
same,TGI,SN12C renal,33.8 µM
same,TGI,HL-60(TB) leukemia,34.2 µM
same,TGI,SNB-75 CNS,27.4 µM
same,TGI,SW-620 colon,57.2 µM
same,TGI,MOLT-4 leukemia,27.7 µM
same,TGI,UACC-257 melanoma,30.1 µM
same,TGI,NCI-H226 lung,41.6 µM
same,TGI,SK-MEL-5 melanoma,24.5 µM
same,TGI,MDA-MB-435,32.2 µM
same,TGI,COLO 205 colon,20.5 µM
same,TGI,LOX IMVI melanoma,53.6 µM
same,TGI,A549 NSCLC,35.6 µM
same,TGI,OVCAR-8 ovarian,42.9 µM
same,TGI,RXF 393 renal,23.2 µM
same,TGI,HCT-15 colon,34.4 µM
same,TGI,CCRF-CEM leukemia,32.7 µM
same,TGI,786-0 renal,29.9 µM
same,TGI,OVCAR-4 ovarian,56.6 µM
same,TGI,SNB-19 CNS,29.5 µM
same,TGI,HOP-92 NSCLC,36.9 µM
same,TGI,TK-10 renal,30.8 µM
same,TGI,MDA-N,32.2 µM
same,TGI,HT29 colon,30.1 µM
same,TGI,SF-268 CNS,53.9 µM
same,TGI,DU-145 prostate,30 µM
same,TGI,K-562 leukemia,45.4 µM
same,TGI,T-47D breast,17.2 µM
same,TGI,RPMI-8226 leukemia,39.6 µM
same,TGI,A498 renal,32.9 µM
same,TGI,BT-549 breast,29.9 µM
same,TGI,CAKI-1 renal,35.1 µM
same,TGI,HCT-116 colon,29.4 µM
same,TGI,HOP-62 NSCLC,45.5 µM
same,TGI,MCF7 breast,34.7 µM
same,TGI,NCI-H23 lung,32.2 µM
same,TGI,OVCAR-3 ovarian,28.4 µM
same,TGI,SK-MEL-2 melanoma,35.4 µM
same,TGI,NCI-H522 lung,35.2 µM
same,TGI,EKVX NSCLC,30 µM
same,TGI,SR leukemia,29.5 µM
same,TGI,OVCAR-5 ovarian,35.9 µM
same,TGI,MDA-MB-231 breast,28.8 µM
same,TGI,SK-MEL-28 melanoma,50.7 µM
same,TGI,SK-OV-3 ovarian,29.3 µM
same,TGI,UO-31 renal,30.6 µM
same,TGI,MALME-3M melanoma,32.5 µM
same,TGI,ACHN renal,28.4 µM
same,TGI,M14 melanoma,26.4 µM
same,TGI,NCI/ADR-RES ovarian,35 µM
same,TGI,PC-3 prostate,25.1 µM
same,TGI,SF-295 CNS,33.1 µM
